Target: EGFR (Homo sapiens, UniProt P00533)
Assay: EGFR inhibitory assay

EGFR, sequence (P00533 669-1210): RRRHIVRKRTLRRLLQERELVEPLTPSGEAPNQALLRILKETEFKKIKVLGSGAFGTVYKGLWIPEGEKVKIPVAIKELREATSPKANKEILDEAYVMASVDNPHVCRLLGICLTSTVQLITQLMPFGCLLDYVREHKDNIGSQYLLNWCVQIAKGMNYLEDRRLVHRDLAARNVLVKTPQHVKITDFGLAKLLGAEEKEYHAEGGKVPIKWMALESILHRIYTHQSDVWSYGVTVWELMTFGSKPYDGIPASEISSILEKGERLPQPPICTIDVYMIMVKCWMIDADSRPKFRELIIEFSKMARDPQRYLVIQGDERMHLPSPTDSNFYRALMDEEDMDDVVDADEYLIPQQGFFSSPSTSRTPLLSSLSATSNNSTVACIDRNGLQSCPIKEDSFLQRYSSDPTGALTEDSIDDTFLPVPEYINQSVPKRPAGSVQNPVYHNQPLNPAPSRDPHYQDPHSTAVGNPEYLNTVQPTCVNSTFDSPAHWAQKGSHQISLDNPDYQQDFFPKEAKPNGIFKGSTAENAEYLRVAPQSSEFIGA

| Compound | IC50 |
| --- | --- |
| O=C(NN=Cc1ccc(F)cc1)c1ccc2[nH]c(-c3ccc(Cl)cc3)nc2c1 [Compound 4d, N′-(4-Fluorobenzylidene)-2-(4-chlorophenyl)-1H-benzimidazole-5-carbohydrazide] | 680 ± 50 nM |
| COc1cc(/C=N/NC(=O)c2ccc3[nH]c(-c4ccc(Cl)cc4)nc3c2)cc(OC)c1OC [Compound 4h, N′-(3,4,5-Trimethoxybenzylidene)-2-(4-chlorophenyl)-1H-benzimidazole-5 carbohydrazide] | 560 ± 50 nM |
